Data reported in ChEMBL document CHEMBL1201862, “PubChem BioAssay data set” (2004).
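48-hour exposure; five concentrations; linearly interpolated endpoints. GI50 is the concentration that inhibits growth by half.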 Active and inactive are the calls of the source. No stated cut-off is given here; in the data, active = GI50 up to about 1.1 µM and inactive = higher.

What was measured:
Test in all cases: NCI-60 cell line screen, 48 h
A498 = tested on: A498
HCT-15 = tested on: HCT-15
OVCAR-3 = tested on: OVCAR-3
K562 = tested on: K562
OVCAR-5 = tested on: OVCAR-5
Malme-3M = tested on: Malme-3M
NCI-H226 = tested on: NCI-H226
ACHN = tested on: ACHN
PC-3 = tested on: PC-3
NCI-H522 = tested on: NCI-H522
RPMI-8226 = tested on: RPMI-8226
SNB-19 = tested on: SNB-19
HOP-62 = tested on: HOP-62
SK-MEL-28 = tested on: SK-MEL-28
SK-OV-3 = tested on: SK-OV-3
HCC 2998 = tested on: HCC 2998
HOP-92 = tested on: HOP-92
SF-268 = tested on: SF-268
MDA-N = tested on: MDA-N
LOX IMVI = tested on: LOX IMVI

Row | SMILES | GI50 (A498) | GI50 (HCT-15) | GI50 (OVCAR-3) | GI50 (K562) | GI50 (OVCAR-5) | GI50 (Malme-3M) | GI50 (NCI-H226) | GI50 (ACHN) | GI50 (PC-3) | GI50 (NCI-H522) | GI50 (RPMI-8226) | GI50 (SNB-19) | GI50 (HOP-62) | GI50 (SK-MEL-28) | GI50 (SK-OV-3) | GI50 (HCC 2998) | GI50 (HOP-92) | GI50 (SF-268) | GI50 (MDA-N) | GI50 (LOX IMVI)
1 | COC(=O)C1=C(C)N2[C@H](C(=O)O)CO[C@@]2(C)[C@H](C(=O)OC)[C@H]1c1cccc([N+](=O)[O-])c1 | > 100 µM (inactive) | > 100 µM | > 100 µM (inactive) | > 100 µM (inactive) | > 100 µM (inactive) | > 100 µM (inactive) | > 100 µM (inactive) | > 100 µM (inactive) | > 100 µM (inactive) | > 100 µM (inactive) | > 100 µM (inactive) | > 100 µM (inactive) | > 100 µM (inactive) | > 100 µM (inactive) | > 100 µM (inactive) | > 100 µM (inactive) | > 100 µM (inactive) | > 100 µM (inactive) | > 100 µM (inactive) | –
2 | COc1ccc(C2=NNC(c3cc4cc(Br)ccc4nc3Cl)C2)cc1 (stereo unspecified) | > 25 µM (inactive) | – | 18.2 µM (inactive) | 6.21 µM (inactive) | > 25 µM (inactive) | – | 0.0107 µM (active) | 13.2 µM (inactive) | 11.9 µM (inactive) | – | 5.74 µM (inactive) | – | – | 15.5 µM (inactive) | – | 11.5 µM (inactive) | > 25 µM (inactive) | – | 6.31 µM (inactive) | –
3 | OCCCCCNc1c2ccccc2nc2ccccc12 | 3.73 µM (inactive) | 3.57 µM | 3.86 µM (inactive) | 2.37 µM (inactive) | 2.51 µM (inactive) | 1.9 µM (inactive) | – | 0.818 µM (active) | 1.98 µM (inactive) | 2.04 µM (inactive) | 3.44 µM (inactive) | 3.03 µM (inactive) | 1.38 µM (inactive) | 3.85 µM (inactive) | 3.05 µM (inactive) | 1.01 µM (active) | – | 2.75 µM (inactive) | 2.54 µM (inactive) | 1.89 µM (inactive)
4 | C[n+]1c2ccccc2c(C(=O)Nc2ccc(S(=O)(=O)N=C(N)N)cc2)c2ccccc21 | > 100 µM (inactive) | > 100 µM | > 100 µM (inactive) | > 100 µM (inactive) | > 100 µM (inactive) | > 100 µM (inactive) | > 100 µM (inactive) | > 100 µM (inactive) | > 100 µM (inactive) | > 100 µM (inactive) | > 100 µM (inactive) | > 100 µM (inactive) | > 100 µM (inactive) | > 100 µM (inactive) | > 100 µM (inactive) | > 100 µM (inactive) | – | > 100 µM (inactive) | > 100 µM (inactive) | 75.3 µM (inactive)
5 | CN(C)CCNC(=O)c1cc([N+](=O)[O-])cc2c1Oc1ccccc1O2 | 25.1 µM (inactive) | > 10 µM | 41.8 µM (inactive) | 23.2 µM (inactive) | 40.9 µM (inactive) | 21.7 µM (inactive) | 12.6 µM (inactive) | 6.46 µM (inactive) | 42 µM (inactive) | 21.7 µM (inactive) | 18.6 µM (inactive) | – | 22.5 µM (inactive) | 35.2 µM (inactive) | – | 3.79 µM (inactive) | – | 21.6 µM (inactive) | 58.2 µM (inactive) | 12.9 µM (inactive)
6 | Cc1cc(-c2nc3cc(F)c(F)cc3s2)ccc1N | > 100 µM (inactive) | > 61.4 µM | > 50.5 µM (inactive) | > 42.5 µM (inactive) | > 53.8 µM (inactive) | > 100 µM (inactive) | – | > 79.1 µM (inactive) | > 52.5 µM (inactive) | 48.6 µM (inactive) | > 63.4 µM (inactive) | > 59.2 µM (inactive) | 39.7 µM (inactive) | > 100 µM (inactive) | > 64 µM (inactive) | > 42.4 µM (inactive) | > 100 µM (inactive) | > 100 µM (inactive) | > 56.6 µM (inactive) | > 82.4 µM (inactive)
7 | CC(C)=CCC[C@@H](C)C1=C(O)C(=O)C(C)=C(Nc2ccccc2F)C1=O | 16.6 µM (inactive) | 5.2 µM | 4.1 µM (inactive) | 9.62 µM (inactive) | 60.4 µM (inactive) | 10.2 µM (inactive) | 17.9 µM (inactive) | 13.8 µM (inactive) | 12.3 µM (inactive) | – | 8.26 µM (inactive) | 15.2 µM (inactive) | 11.6 µM (inactive) | 38.6 µM (inactive) | 25.7 µM (inactive) | 48.1 µM (inactive) | 21.1 µM (inactive) | 9.77 µM (inactive) | 23.1 µM (inactive) | 16.4 µM (inactive)
8 | COC1=CC(=O)C2=C(C1=O)[C@H]1CC[C@]3(C)[C@@H](O)CC[C@H]3[C@@H]1CC2 | 52.8 µM (inactive) | 18 µM | 17.9 µM (inactive) | 28.9 µM (inactive) | 19.2 µM (inactive) | – | 17.7 µM (inactive) | 18 µM (inactive) | 16.4 µM (inactive) | 17.9 µM (inactive) | 19.3 µM (inactive) | 24.4 µM (inactive) | 16.2 µM (inactive) | 18.9 µM (inactive) | 45 µM (inactive) | 20.7 µM (inactive) | 21.6 µM (inactive) | 17.3 µM (inactive) | 17.5 µM (inactive) | 19.8 µM (inactive)
9 | CC(=O)OC(CCC1(C)OC1COc1ccc(CCNC(=O)C=C(C)C)cc1)C(C)(C)OC(C)=O (stereo unspecified) | > 100 µM (inactive) | 24.9 µM | 16.8 µM (inactive) | – | > 100 µM (inactive) | 23.5 µM (inactive) | > 57 µM (inactive) | 3.61 µM (inactive) | 29.9 µM (inactive) | 19.5 µM (inactive) | 13.1 µM (inactive) | > 100 µM (inactive) | 20 µM (inactive) | 28.2 µM (inactive) | > 100 µM (inactive) | > 100 µM (inactive) | > 100 µM (inactive) | > 61.2 µM (inactive) | 13.3 µM (inactive) | 5.85 µM (inactive)
10 | Cc1cc(-c2ccc(C(=O)O)[nH]2)on1 | > 100 µM (inactive) | 20.2 µM | 32.4 µM (inactive) | 56 µM (inactive) | 74.1 µM (inactive) | 38.2 µM (inactive) | – | > 100 µM (inactive) | 68.5 µM (inactive) | 29 µM (inactive) | 62.7 µM (inactive) | 61.4 µM (inactive) | 65.2 µM (inactive) | > 100 µM (inactive) | 32.6 µM (inactive) | 55 µM (inactive) | 66.7 µM (inactive) | > 100 µM (inactive) | 4.91 µM (inactive) | –
11 | O=C1CSC2(CC(/C=C/c3ccccc3Br)=NN2c2cccc(S(=O)(=O)O)c2)N1c1nc2ccccc2s1 (stereo unspecified) | > 100 µM (inactive) | > 100 µM | – | 54.8 µM (inactive) | > 100 µM (inactive) | > 100 µM (inactive) | 53.2 µM (inactive) | > 100 µM (inactive) | > 100 µM (inactive) | 52 µM (inactive) | 44.8 µM (inactive) | > 100 µM (inactive) | – | > 100 µM (inactive) | – | > 100 µM (inactive) | 87.9 µM (inactive) | > 100 µM (inactive) | > 100 µM (inactive) | > 100 µM (inactive)
12 | COC(=O)CN(CC(=O)NCCCBr)C1CCCCC1N(CC(=O)OC)CC(=O)OC (stereo unspecified) | > 100 µM (inactive) | > 100 µM | > 100 µM (inactive) | > 100 µM (inactive) | > 100 µM (inactive) | – | > 100 µM (inactive) | > 100 µM (inactive) | > 100 µM (inactive) | > 100 µM (inactive) | > 100 µM (inactive) | > 100 µM (inactive) | > 100 µM (inactive) | > 100 µM (inactive) | 32.3 µM (inactive) | > 100 µM (inactive) | 77.3 µM (inactive) | > 100 µM (inactive) | > 100 µM (inactive) | > 100 µM (inactive)
13 | CCc1nnc(-n2c(C)nc3cc(Cl)ccc3c2=O)s1 | 39.9 µM (inactive) | 44.1 µM | 18.7 µM (inactive) | 29 µM (inactive) | > 100 µM (inactive) | 16 µM (inactive) | 43.1 µM (inactive) | 33.8 µM (inactive) | 52.8 µM (inactive) | 20.5 µM (inactive) | – | 36.1 µM (inactive) | 45.4 µM (inactive) | 46.6 µM (inactive) | 38.4 µM (inactive) | 49.8 µM (inactive) | 27 µM (inactive) | 37.8 µM (inactive) | 13.3 µM (inactive) | 39.1 µM (inactive)
14 | CC#CC#C/C=C1/O[C@]2(CCC(OC(=O)CC(C)C)CO2)[C@@H]2O[C@H]12 (stereo partly specified) | > 100 µM (inactive) | 21 µM | 21.5 µM (inactive) | 31.3 µM (inactive) | 28.2 µM (inactive) | 21.8 µM (inactive) | – | 21 µM (inactive) | 23.5 µM (inactive) | 19.3 µM (inactive) | 19.7 µM (inactive) | 61.7 µM (inactive) | 42.7 µM (inactive) | – | > 100 µM (inactive) | 19.5 µM (inactive) | 27.4 µM (inactive) | 24.4 µM (inactive) | 22.5 µM (inactive) | 16.2 µM (inactive)
15 | Cc1c(C(=O)NNc2ccccc2)n2c(S)nnc2c2ccccc12 | > 100 µM (inactive) | > 100 µM | > 100 µM (inactive) | > 100 µM (inactive) | > 100 µM (inactive) | – | > 100 µM (inactive) | > 100 µM (inactive) | > 100 µM (inactive) | > 100 µM (inactive) | 58.2 µM (inactive) | > 100 µM (inactive) | > 100 µM (inactive) | 86.7 µM (inactive) | > 100 µM (inactive) | 71.8 µM (inactive) | > 100 µM (inactive) | > 100 µM (inactive) | > 100 µM (inactive) | > 100 µM (inactive)
